Data taken from US20120022122A1, “TREATMENT AND PREVENTION OF DELETERIOUS EFFECTS ASSOCIATED WITH ALCOHOL CONSUMPTION” (priority 2008, published 2012).
Where two headings read alike, the source gives them in different places.

Key:
[1] = system: alcohol-induced flush reaction; settings: for effects/effectiveness compared to no treatment or comparator: cimetidine 300 mg vs famotidine 10 mg vs no treatment; for effectiveness as preventative treatment against symptoms of alcohol-induced flush reaction (summary of the studies): famotidine at low dose, cimetidine at a higher dose; for undesired side-effects (drowsiness, sedation): famotidine 10 mg oral chewable tablet, with alcohol;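 on all read-outs here: human subjects with alcohol-induced flushing observed over social drinking occasions, with each subject also tested untreated as the control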
[2] = system: alcohol flush reaction and hangover; settings: previous studies with famotidine alone
[3] = cited from earlier work
[4] = Patient one, oral 45 min before drinking: cimetidine 300 mg (2 beverages, about 2 h) or famotidine 10 mg (2 oz tequila and 5 glasses beer, more than 6 h)
[5] = Patient three, oral 45 min before drinking: cimetidine 300 mg (2 beverages, about 3 h) or famotidine 10 mg (cocktails, about 4 h)
[6] = Subject 2, with alcohol, oral 45 min before drinking: cimetidine 300 mg or famotidine 10 mg
[7] = Subject 4, with alcohol, oral 45 min before drinking: cimetidine 300 mg or famotidine 10 mg
[8] = Subject 1, with alcohol, oral 45 min before drinking: loratidine 20 mg or famotidine 10 mg
[9] = Subject 3, with alcohol, oral 45 min before drinking: loratidine 20 mg or famotidine 10 mg
[10] = Subject 5, with alcohol, oral 45 min before drinking: loratidine 20 mg or famotidine 10 mg

## CN/C(=N/CCSCc1nc[nH]c1C)NC#N [Cimetidine]
[1]; Patient one
  effects/effectiveness compared to no treatment or comparator: slightly less aggressive
[1]; [4]
  flushing reaction after drinking alcohol: still experienced a facial flushing reaction, increased heart rate, as well as a headache
[1]; Patient three
  effects/effectiveness compared to no treatment or comparator: slightly less aggressive
[1]; [5]
  flushing reaction after drinking alcohol: still experienced a facial flushing reaction and an increased heart rate
[1]; [6]
  Heart rate: 97
  Temp (F.): 98.0 F.
[1]; [7]
  Heart rate: 87
  Temp (F.): 97.1 F.
[1]
  effectiveness as preventative treatment against symptoms of alcohol-induced flush reaction (summary of the studies): minimally effective

## NC(N)=Nc1nc(CSCCC(N)=NS(N)(=O)=O)cs1 [Famotidine]
[1]; 10 mg of famotidine
  redness while imbibing in alcohol: significantly prevents redness
[1]; Patient five
  undesired side-effects (drowsiness, sedation): no undesired side-effects whatsoever
[1]; Patient five, famotidine 10 mg oral, continued drinking beyond six drinks and more than six hours
  period after which the protective effect (flushing blockade) dissipated: about five
[1]; Patient five, oral 45 min before drinking: loratadine 20 mg (1 beverage, 1 h) or famotidine 10 mg (5 beverages, about 5 h)
  flushing reaction after drinking alcohol: neither a facial flushing reaction nor any nasal congestion
[1]; Patient four
  undesired side-effects (drowsiness, sedation): no undesired side-effects whatsoever
[1]; Patient four, oral 45 min before drinking: loratadine 20 mg (3 beverages, 3-4 h) or famotidine 10 mg (multiple glasses of wine, 4 h)
  flushing reaction after drinking alcohol: no flushing reactions of the face or of the torso
[1]; Patient one
  effects/effectiveness compared to no treatment or comparator: much more effective than cimetidine
  undesired side-effects (drowsiness, sedation): no undesired side-effects whatsoever
[1]; [4]
  flushing reaction after drinking alcohol: no facial flushing reaction
[1]; Patient three
  effects/effectiveness compared to no treatment or comparator: much more effective than cimetidine or no treatment
  undesired side-effects (drowsiness, sedation): no undesired side-effects whatsoever
[1]; [5]
  flushing reaction after drinking alcohol: no flushing reactions of the face
[1]; Patient two
  undesired side-effects (drowsiness, sedation): no undesired side-effects whatsoever
[1]; Patient two, oral 45 min before drinking: loratadine 20 mg (3 beverages, 3-4 h) or famotidine 10 mg (2-3 glasses Vodka, several hours)
  flushing reaction after drinking alcohol: no flushing reactions, either of the face or of the torso
[1]; [8]
  Heart rate: 77
  Temp (F.): 97.3 F.
[1]; [6]
  Heart rate: 82
  Temp (F.): 98.2 F.
[1]; [9]
  Heart rate: 84
  Temp (F.): 97.4 F.
[1]; [7]
  Heart rate: 78
  Temp (F.): 97.1 F.
[1]; [10]
  Heart rate: 83
  Temp (F.): 97.3 F.
[1]
  effectiveness as preventative treatment against symptoms of alcohol-induced flush reaction (summary of the studies): highly effective
[2]
  symptoms associated with hangover: did not appear to significantly reduce or eliminate symptoms associated with hangover
[3]; in ethanol
  solubility: practically insoluble
[3]; in glacial acetic acid
  solubility: freely soluble
[3]; in methanol
  solubility: slightly soluble
[3]; in water
  solubility: very slightly soluble
